Tested on: human primary corneal epithelial cells
Assay: mucin secretion assay using human primary corneal epithelial cells
Assay type: cell-based
Conditions: for Soluble Mucin Units/well: 45-minute incubation at 37° C., conditioned medium; for Total Mucin Units/well: soluble plus membrane-associated (NAC wash) mucin; for Stimulation Index: ratio of Total Mucin Units/well test solution to Control

## CCCCCCCCCCCCO[C@@H]1O[C@H](CO)[C@@H](O[C@H]2O[C@H](CO)[C@@H](O)[C@H](O)[C@H]2O)[C@H](O)[C@H]1O [Dodecylmaltoside, n-Dodecyl-beta-D-maltoside]
0.0001% DDM
  Soluble Mucin Units/well: 10 ± 0.6 Units/well
  Total Mucin Units/well: 18.7 ± 0.2 Units/well
  Stimulation Index: 1.23
0.001% DDM
  Soluble Mucin Units/well: 24.7 ± 2.7 Units/well
  Total Mucin Units/well: 32.3 ± 2.9 Units/well
  Stimulation Index: 2.12
0.01% DDM
  Soluble Mucin Units/well: 13.2 ± 0.5 Units/well
  Total Mucin Units/well: 30.17 ± 0.6 Units/well
  Stimulation Index: 1.98

Source: US7223737B1, “Method of treating dry eye disorders using glycosides” (Alcon, Inc., priority 2004, dated 2007)
